Test results reported in the NIST ThermoML archive (doi:10.1016/j.jct.2013.03.027).
Numbers after ± are expanded uncertainties.

Assays:
[1] = xn = mol fraction of the nth substance listed; conditions: 101 kPa, Liquid, Archimedean displacement method, x1 = 0.5
[2] = Crystal; visual observation

Row | mass density ([1]; 1065 K) [kg/m3] | mass density ([1]; 1069 K) [kg/m3] | mass density ([1]; 1072 K) [kg/m3] | mass density ([1]; 1073 K) [kg/m3] | mass density ([1]; 1074 K) [kg/m3] | mass density ([1]; 1078 K) [kg/m3] | mass density ([1]; 1084 K) [kg/m3] | Normal melting temperature [2] [°C] | Structure (SMILES)
1 | 3670 ± 37 | 3669 ± 37 | 3664 ± 37 | 3663 ± 37 | 3660 ± 37 | 3657 ± 37 | 3652 ± 37 | – | [Ag][I] [silver iodide] + [Cl-].[Na+]
2 | – | – | – | – | – | – | – | 801 ± 1 | [Cl-].[Na+] [sodium chloride]
3 | – | – | – | – | – | – | – | 559 ± 1 | [Ag][I] [silver iodide]
